# Values of other authors, collected in patent publication US20250278807A1, “MODERN MONETARY THEORY AND TRANSLATIONAL SCIENTIFIC RESEARCH” (priority 2025, published 2025).
# Where two headings read alike, the source gives them in different places.
# Assays:
# [1] = test system: wide variety of cancer cells; conditions: in vivo
# [2] = test system: wide variety of cancer cells; conditions: in vitro
# [3] = in vivo
# [4] = test system: melanoma tumors
# [5] = test system: other malignant cell cultures; conditions: in vitro
# [6] = test system: melanoma cell
# [7] = test system: blood glucose
# [8] = in vivo; remark: listed apart in the source
# [9] = target: T1, beta amyloid peptide (1-40) aggregates (Homo sapiens, UniProt P05067); conditions: in vitro, aggregates formed with calcium ions; loss of Thioflavin T fluorescence
# T1 construct: beta amyloid peptide (1-40)
# T1 sequence (P05067 672-711 limits assumed): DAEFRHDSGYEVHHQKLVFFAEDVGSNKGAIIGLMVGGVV
# [10] = test system: thoracic atheroma; conditions: administered intraperitoneally, cholesterol-fed rabbits
# [11] = test system: chronic lumbar radicular pain; conditions: phase II trials, versus placebo
compound,measurement,setting,value
"O=CC[C@@H](O)[C@H](O)[C@H](O)CO [2DG, 2-Deoxy-D-Glucose]",inhibition of growth of cancer cells,[1],inhibit growth
same,inhibition of growth of cancer cells,[2],inhibit growth
O=[14CH][C@H](O)[C@H](O)[C@H](O)CO [D-ribose-1-C^14],excretion after infusion,[3],excreted unchanged in the urine
"C[C@@H](O)C(=O)O[C@H](C)C(=O)O [DLAD, D-Lactic Acid Dimer]",inhibition of growth of melanoma tumors,[4]; in vivo,inhibit growth
same,tumoricidal activity,[4]; intralesional application,dose response tumoricidal activity
same,inhibition of growth of other malignant cell cultures,[5],inhibit growth
same,inhibition of growth of cancer cells,[1],inhibit growth
same,inhibition of melanoma cell proliferation,[6]; compared to L-lactic acid dimer (P<0.0001),conclusively shown
same,efficacy at pH 7,[6]; pH 7,lost efficacy
same,inhibition of growth of cancer cells,[2],inhibit growth
NCCCC[C@H](N)C(=O)O [L-lysine],effect on absorption of glucose,[7]; concomitant administration of glucose with L-lysine,decrease the absorption of glucose
same,oral bioavailability,"[7]; in vivo, po",well established
same,effect on blood glucose,[7]; oral administration,lower blood glucose
CCN(CC)CCOC(=O)c1ccc(N)cc1 [Procaine],oral bioavailability,[8],orally bioavailable
O=C(O)CC(O)(CC(=O)O)C(=O)O [citrate],dissolution of beta amyloid aggregates,[9],can be dissolved
O=C([O-])CC(O)(CC(=O)[O-])C(=O)[O-].[Na+].[Na+].[Na+] [sodium citrate],effect on thoracic atheroma,[10],decreased thoracic atheroma
COc1c([C@H]2[C@H](C(=O)Nc3ccnc(C(N)=O)c3)O[C@@](C)(C(F)(F)F)[C@H]2C)ccc(F)c1F [suzetrigine],efficacy in chronic lumbar radicular pain,[11],no better efficacy than placebo
Choline citrate,effect on thoracic atheroma,[10],decreased thoracic atheroma
